Experimental data: patent publication US9944645B2, “Imidazotriazines and imidazopyrimidines as kinase inhibitors” (Incyte Holdings Corporation, priority 2006, dated 2018)

Target: c-Met kinase (h-Met; histidine-tagged c-Met catalytic domain fusion protein) (Homo sapiens (Human), UniProt P08581)
Assay: In Vitro c-Met Kinase Enzyme Assays
Assay type: biochemical
Conditions: phosphorylation of poly Glu-Tyr, 5 μM ATP, 25 minutes at 30° C.
Outline: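 His-tagged c-Met catalytic domain reacted 25 min at 30° C, within the linear initial-rate range. Phosphotyrosine detected by ELISA with peroxidase-labeled anti-phospho-tyrosine antibody and TMB, OD read at 450 nm (540 nm correction); IC50 from curve fit.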

c-Met kinase (h-Met; histidine-tagged c-Met catalytic domain fusion protein), sequence (P08581 1078-1345): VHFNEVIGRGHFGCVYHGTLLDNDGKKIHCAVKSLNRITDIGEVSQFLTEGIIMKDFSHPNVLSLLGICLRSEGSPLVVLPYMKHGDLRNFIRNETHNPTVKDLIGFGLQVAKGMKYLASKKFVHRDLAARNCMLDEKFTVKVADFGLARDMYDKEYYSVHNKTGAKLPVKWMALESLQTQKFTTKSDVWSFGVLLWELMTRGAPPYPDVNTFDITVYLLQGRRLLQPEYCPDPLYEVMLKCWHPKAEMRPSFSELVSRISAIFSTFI

| SMILES | IC50 [nM] |
| --- | --- |
| CNC(=O)c1ccc(-c2cnc3ncc(Sc4ccc5ncccc5c4)n3c2)cc1Cl [Example 12, 2-chloro-N-methyl-4-[3-(quinolin-6-ylthio)imidazo[1,2-a]pyrimidin-6-yl]benzamide] | < 500 |
| O=C(c1ccc(-c2cnc3ncc(C4(c5ccc6ncccc6c5)CC4)n3c2)c(F)c1)N1CC[C@H](O)C1 [Example 76, (3S)-1-{3-Fluoro-4-[3-(1-quinolin-6-ylcyclopropyl)imidazo[1,2-a]pyrimidin-6-yl]benzoyl}pyrrolidin-3-ol] | < 500 |
| O=C(c1ccc(-c2cnc3ncc(C4(c5ccc6ncccc6c5)CC4)n3c2)cc1)N1CC[C@H](Oc2ccccn2)C1 [Example 39, 6-{1-[6-(4-[(3S)-3-(Pyridin-2-yloxy)pyrrolidin-1-yl]carbonylphenyl)imidazo[1,2-a]pyrimidin-3-yl]cyclopropyl}quinoline] | < 500 |
| COC(=O)N1CCN(c2ccc(-c3cnc4ncc(C5(c6ccc7ncccc7c6)CC5)n4c3)cn2)CC1 [Example 53, Methyl 4-{5-[3-(1-quinolin-6-ylcyclopropyl)imidazo[1,2-a]pyrimidin-6-yl]pyridin-2-yl}piperazine-1-carboxylate] | < 500 |
| O=C(NCc1ccccn1)c1ccc(-c2cnc3ncc(C4(c5ccc6ncccc6c5)CC4)n3n2)cc1 [Example 106, N-(Pyridin-2-ylmethyl)-4-[7-(1-quinolin-6-ylcyclopropyl)imidazo[1,2-b][1,2,4]triazin-2-yl]benzamide] | < 500 |
| N#CCn1cc(-c2cnc3ncc(C4(c5ccc6ncccc6c5)CC4)n3c2)cn1 [Example 93, {4-[3-(1-Quinolin-6-ylcyclopropyl)imidazo[1,2-a]pyrimidin-6-yl]-1H-pyrazol-1-yl}acetonitrile] | < 500 |
| CNC(=O)c1ccc(-c2cnc3ncc(Sc4ccc(OC)cc4)n3c2)cc1Cl [Example 10, 2-chloro-4-3-[(4-methoxyphenyl)thio]imidazo[1,2-a]pyrimidin-6-yl-N-methylbenzamide] | < 500 |
| O=C1OCCN1c1ccc(-c2cnc3ncc(Cc4ccc5ncccc5c4)n3n2)cc1F [Example 130, 3-{2-Fluoro-4-[7-(quinolin-6-ylmethyl)imidazo[1,2-b][1,2,4]triazin-2-yl]phenyl}-1,3-oxazolidin-2-one] | < 500 |
| CC(C)(CO)NC(=O)c1ccc(-c2cnc3ncc(C4(c5ccc6ncccc6c5)CC4)n3n2)cc1 [Example 110, N-(2-Hydroxy-1,1-dimethylethyl)-4-[7-(1-quinolin-6-ylcyclopropyl)imidazo[1,2-b][1,2,4]triazin-2-yl]benzamide] | < 500 |
| COc1ccc(Sc2cnc3ncc(-c4ccc(Br)c(F)c4)nn23)cc1 [Example 8, 2-(4-Bromo-3-fluorophenyl)-7-[(4-methoxyphenyl)thio]imidazo[1,2-b][1,2,4]triazine] | < 500 |
| O=C1OCCN1Cc1ccc(-c2cnc3ncc(C4(c5ccc6ncccc6c5)CC4)n3c2)cc1F [Example 70, 3-{2-Fluoro-4-[3-(1-quinolin-6-ylcyclopropyl)imidazo[1,2-a]pyrimidin-6-yl]benzyl}-1,3-oxazolidin-2-one] | < 500 |
| CN(C)C(=O)Cn1ccc(-c2cnc3ncc(C4(c5ccc6ncccc6c5)CC4)n3c2)n1 [Example 197, N,N-Dimethyl-2-{3-[3-(1-quinolin-6-ylcyclopropyl)imidazo[1,2-a]pyrimidin-6-yl]-1H-pyrazol-1-yl}acetamide] | < 500 |
| CNC(=O)c1ccc(-c2cnc3ncc(C(C)c4ccc5ncccc5c4)n3n2)cc1F (centres unmarked) [Example 160, 2-Fluoro-N-methyl-4-[7-(1-quinolin-6-ylethyl)imidazo[1,2-b][1,2,4]triazin-2-yl]benzamide] | < 500 |
| O=C(c1ccc(-c2cnc3ncc(C4(c5ccc6ncccc6c5)CC4)n3c2)cc1)N1CC[C@H](F)C1 [Example 35, 6-{1-[6-(4-[(3S)-3-Fluoropyrrolidin-1-yl]carbonylphenyl)imidazo[1,2-a]pyrimidin-3-yl]cyclopropyl}quinoline] | < 500 |
